Data as given in PMC7397269, “Synthesis and Evaluation of New Coumarin Derivatives as Antioxidant, Antimicrobial, and Anti-Inflammatory Agents” (Molecules, 2020).
pIC50: −log10 of the molar value. Values after ≈ are worked out from the molar mass of the structure shown. Where two headings read alike, the source gives them in different places.

Experiments:
[1] = DPPH antioxidant assay (radical scavenging); format: biochemical; settings: mean ± SD (n = 3)
Procedure: The antioxidant effects of the synthesised compounds were assessed using the 2,2-diphenyl-1-picrylhydrazyl (DPPH) antioxidant assay. Table 1 summarises the antioxidant effects of the test samples and ascorbic acid except for compound 5b because it was produced in poor yield.
The radical scavenging activity of the synthesised compounds was measured using the DPPH microplate-based method. The absorbance was measured using a microplate/cuvette reader (Spectramax M5, Molecular Devices, San Jose, CA, USA). Reference standard ascorbic acid was utilised as the positive control for this assay. Test samples were prepared at a starting concentration of 200 μg/mL after mixing with 100 μL of 0.2 mM DPPH methanolic solution. […] Samples were incubated with DPPH in the dark for 30 min at room temperature (25 °C). The methanolic DPPH solution was prepared daily and stored in a flask covered with aluminium foil. DPPH radicals have an absorption maximum (λmax) at 515 nm, at which the absorbance values were measured and converted into a percentage of antioxidant activity.
The methanolic DPPH solution without antioxidants was used as a control, and samples in methanol alone served as a background control. IC50 was determined using GraphPad Prism 7 (GraphPad Software Inc., San Diego, CA, USA). The percent inhibition was calculated using the following Equation (1):(1) % Inhibition=100−Sample Absorbance −Sample background Absorbance/DPPH only Absorbance×100
The assay was carried out in triplicate and performed as much as possible in an area protected against light. The data points are presented as the mean ± standard deviation (SD, n = 3).

[2] = tested on: Staphylococcus aureus ATCC 29213; experiment: Agar well diffusion, S. aureus; format: cell-based; settings: ATCC29213, 100 μL of 10 mg/mL in DMSO, read-out: diameter of inhibition zone, SA
From the text: (§1) The new molecules were individually tested for their antimicrobial activity in vitro against standard bacteria strains from the American Type Culture Collection (ATCC), namely, Staphylococcus aureus ATCC 29213, Bacillus subtilis ATCC 6633, Bacillus megaterium ATCC 9885 (Gram-positive), Escherichia coli ATCC 2592, and Pseudomonas aeruginosa ATCC 27,953 (Gram-negative). The compounds were also microbiologically tested against locally isolated Saccharomyces cerevisiae (yeast) and the standard Agricultural Research Service Culture Collection (NRRL) strain of the yeast-like pathogenic fungus Candida albicans NRRL Y-477. Primary screening was conducted using the agar well diffusion method using nutrient agar (NA) medium and Sabourand dextrose agar (SDA) medium for the tested pathological bacteria and yeast, respectively. […].
(§2) Antimicrobial tests were conducted via the agar well diffusion method using 100 μL of suspension containing 1 × 10^8 CFU/mL pathological tested bacteria and 1 × 10^6 CFU/mL yeast spread on NA and SDA, respectively. After the media cooled and solidified, wells (10 mm in diameter) were made in the solidified agar and loaded with 100 μL of the tested compound solution prepared by dissolving 10 mg of the chemical compound in 1 mL dimethyl sulfoxide (DMSO). The inoculated plates were then incubated for 24 h at 37 °C for bacteria and yeast growth. DMSO served as negative control. Ciprofloxacin (10 mg/mL) and ketoconazole (10 mg/mL) were used as standards for antibacterial and antifungal activity, respectively. After incubation, antimicrobial activity was evaluated by measuring the zone of inhibition against the test organisms and compared with that of the standard. Antimicrobial activities were expressed as the diameter of the inhibition zone (IZ) in mm. The experiment was carried out in triplicate and the average zone of inhibition was calculated.

[3] = tested on: Bacillus subtilis ATCC 6633; experiment: Agar well diffusion, B. subtilis; format: cell-based; settings: ATCC6633, 100 μL of 10 mg/mL in DMSO, read-out: diameter of inhibition zone, BS
From the text: as §1, §2

[4] = tested on: Bacillus megaterium ATCC 9885; experiment: Agar well diffusion, B. megaterium; format: cell-based; settings: Priestia megaterium, ATCC9885, 100 μL of 10 mg/mL in DMSO, read-out: diameter of inhibition zone, BM
From the text: as §1, §2

[5] = tested on: Escherichia coli ATCC 2592; experiment: Agar well diffusion, E. coli; format: cell-based; settings: ATCC2592, 100 μL of 10 mg/mL in DMSO, read-out: diameter of inhibition zone, EC
From the text: as §1, §2

[6] = tested on: Pseudomonas aeruginosa ATCC 27,953; experiment: Agar well diffusion, P. aeruginosa; format: cell-based; settings: ATCC27, 100 μL of 10 mg/mL in DMSO, read-out: diameter of inhibition zone, PA
From the text: as §1, §2

[7] = tested on: Saccharomyces cerevisiae local isolate; experiment: Agar well diffusion, S. cerevisiae; format: cell-based; settings: read-out: diameter of inhibition zone, SC
From the text: as §1, §2

[8] = tested on: Candida albicans NRRL Y-477; experiment: Agar well diffusion, C. albicans; format: cell-based; settings: NRRLY477, 100 μL of 10 mg/mL in DMSO, read-out: diameter of inhibition zone, CA
From the text: as §1, §2

[9] = tested on: Saccharomyces cerevisiae local isolate; experiment: MIC, two-fold serial dilution, S. cerevisiae; format: cell-based; settings: read-out: Minimum inhibitory concentration, SC
From the text: as §1
(§3) The bacteriostatic activity of the active compounds (having IZ > 16 mm) was then evaluated using the two-fold serial dilution technique. Two-fold serial dilutions of the tested compounds solutions were prepared using the proper nutrient broth to reach final concentrations of 1000, 500, 250, and 125 μg/mL. The tubes were then inoculated with the test microorganisms grown in their suitable broth at 37 °C for 24 h (1 × 10^8 CFU/mL for bacteria and 1 × 10^6 CFU/mL of yeast), 0.1 mL of the above inoculum was administered per 5 mL, and the tubes were incubated at 37 °C for 24 h. The lowest concentration showing no growth was taken as the MIC.

[10] = tested on: Candida albicans NRRL Y-477; experiment: MIC, two-fold serial dilution, C. albicans; format: cell-based; settings: NRRLY477, read-out: Minimum inhibitory concentration, CA
From the text: as §1, §3

trypsin = experiment: Proteinase-inhibitory activity; format: biochemical; settings: 250 µg/mL; mean ± SD (n = 3)
Procedure: The newly synthesised compounds were individually tested for their in vitro anti-inflammatory activity against proteinase enzyme. […] This test was performed at the Pharmacology Department, Medical Research Division, National Research Centre, Cairo, Egypt. Furthermore, compounds 2–8 were evaluated for their COX1/COX2 inhibitory activities.
The test was performed according to El-Serwy et al. with minor modifications. The reaction mixture (2 mL) contained 0.06 mg trypsin, 20 mM Tris HCl buffer (pH 7.4), and 1 mL test sample (250 µg/mL for each compound). After incubating for 5 min, 1 mL of 0.8% (w/v) casein was added. The mixture was incubated for an additional 20 min. The reaction was arrested by adding 1 mL of 10% perchloric acid. The cloudy suspension was centrifuged, and the absorbance of the supernatant was read at 280 nm. Reference standard aspirin was used as the positive control. The experiment was performed in triplicate. The percent inhibition of protein denaturation was calculated using the following Equation (2):(2) % Inhibition=100−A control −A test/A control×100 where Acontrol and Atest represent the absorbance of the control reaction without and with the sample, respectively.

COX-1 = biological target: T1, COX-1 (Homo sapiens, UniProt P23219); experiment: COX-1 inhibition, Cayman assay kit; format: biochemical; settings: mean of two determinations
T1 construct: purchased Cayman Chemical 701070

COX-2 = biological target: T2, COX-2 (Homo sapiens, UniProt P35354); experiment: COX-2 inhibition, Cayman assay kit; format: biochemical; settings: for pIC50: mean of two determinations; for SI, selectivity index (COX-1/COX-2): ratio of COX-1/COX-2 IC50
T2 construct: purchased Cayman Chemical 701080
T2 sequence (P35354 18-604): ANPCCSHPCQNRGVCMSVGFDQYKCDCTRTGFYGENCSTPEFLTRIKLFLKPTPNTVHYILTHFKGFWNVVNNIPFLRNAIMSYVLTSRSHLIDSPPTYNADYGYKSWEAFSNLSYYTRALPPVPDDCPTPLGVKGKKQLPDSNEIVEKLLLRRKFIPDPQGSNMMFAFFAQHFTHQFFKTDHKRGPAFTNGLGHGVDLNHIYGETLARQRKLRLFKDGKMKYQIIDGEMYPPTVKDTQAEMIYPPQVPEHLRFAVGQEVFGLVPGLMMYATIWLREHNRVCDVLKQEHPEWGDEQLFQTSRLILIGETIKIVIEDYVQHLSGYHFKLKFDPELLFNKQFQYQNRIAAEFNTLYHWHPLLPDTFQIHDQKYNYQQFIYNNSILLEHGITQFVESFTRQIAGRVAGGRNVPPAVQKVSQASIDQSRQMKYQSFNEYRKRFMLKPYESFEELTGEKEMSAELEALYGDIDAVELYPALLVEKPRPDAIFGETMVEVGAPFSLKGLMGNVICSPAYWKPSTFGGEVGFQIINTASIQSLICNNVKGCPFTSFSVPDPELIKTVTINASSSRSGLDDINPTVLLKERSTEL

[11] = tested on: Staphylococcus aureus ATCC 29213; experiment: MIC, two-fold serial dilution, S. aureus; format: cell-based; settings: ATCC29213, read-out: Minimum inhibitory concentration, SA
From the text: as §1, §3

[12] = tested on: Bacillus subtilis ATCC 6633; experiment: MIC, two-fold serial dilution, B. subtilis; format: cell-based; settings: ATCC6633, read-out: Minimum inhibitory concentration, BS
From the text: as §1, §3

[13] = tested on: Bacillus megaterium ATCC 9885; experiment: MIC, two-fold serial dilution, B. megaterium; format: cell-based; settings: Priestia megaterium, ATCC9885, read-out: Minimum inhibitory concentration, BM
From the text: as §1, §3

[14] = tested on: Escherichia coli ATCC 2592; experiment: MIC, two-fold serial dilution, E. coli; format: cell-based; settings: ATCC2592, read-out: Minimum inhibitory concentration, EC
From the text: as §1, §3

[15] = tested on: Pseudomonas aeruginosa ATCC 27,953; experiment: MIC, two-fold serial dilution, P. aeruginosa; format: cell-based; settings: ATCC27, read-out: Minimum inhibitory concentration, PA
From the text: as §1, §3

[16] = well diffusion, 100 μL of 10 mg/mL in DMSO, S. cerevisiae

T1 sequence (P23219 24-599): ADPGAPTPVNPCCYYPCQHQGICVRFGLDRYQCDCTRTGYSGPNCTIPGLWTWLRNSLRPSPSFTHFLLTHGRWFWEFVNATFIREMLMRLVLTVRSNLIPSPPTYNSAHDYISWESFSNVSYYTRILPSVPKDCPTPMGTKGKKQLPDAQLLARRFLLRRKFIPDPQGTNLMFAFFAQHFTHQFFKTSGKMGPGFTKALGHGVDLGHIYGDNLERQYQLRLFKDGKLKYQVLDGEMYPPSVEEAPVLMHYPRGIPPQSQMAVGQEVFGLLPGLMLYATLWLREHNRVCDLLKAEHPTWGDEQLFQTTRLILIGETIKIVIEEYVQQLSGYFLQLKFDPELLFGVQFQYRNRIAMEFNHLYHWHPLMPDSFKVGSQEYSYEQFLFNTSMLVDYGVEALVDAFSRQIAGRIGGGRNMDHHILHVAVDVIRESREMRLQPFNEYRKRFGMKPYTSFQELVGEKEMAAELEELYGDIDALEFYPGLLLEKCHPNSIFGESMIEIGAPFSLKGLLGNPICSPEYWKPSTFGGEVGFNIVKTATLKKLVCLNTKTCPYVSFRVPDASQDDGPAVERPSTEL

Compound	IC50 [1]	zone of inhibition at 10000 µg/mL [2] [mm]	zone of inhibition at 10000 µg/mL [3] [mm]	zone of inhibition at 10000 µg/mL [4] [mm]	zone of inhibition at 10000 µg/mL [5] [mm]	zone of inhibition at 10000 µg/mL [6] [mm]	zone of inhibition at 10000 µg/mL [7] [mm]	zone of inhibition at 10000 µg/mL [8] [mm]	MIC [9] [mg/L]	MIC [10] [mg/L]	% Inhibition (proteinase) (trypsin) [%]	pIC50 (COX-1)	pIC50 (COX-2)	SI, selectivity index (COX-1/COX-2) (COX-2)	melting point [°C]	MIC [11] [mg/L]	zone of inhibition at 10000 µg/mL [7, 16] [mm]	MIC [12] [mg/L]	MIC [13] [mg/L]	further results
Cc1ccc2oc(=O)c3c(c2c1)OC(N)=C(C(N)=O)C3c1ccco1 (racemic) [3b, (±)-2-Amino-4-(furan-2-yl)-9-methyl-5-oxo-4H,5H-pyrano[3,2-c]chromene-3-carboxamide]	48.38 ± 4.616 mg/L (≈ 143 µM)	16	< 15	< 15	16	16	17	18	1000 (≈ 2960 µM)	1000 (≈ 2960 µM)	49.28 ± 10.93	5.11	5.61	3.16	202 to 204	–	–	–	–	–
COc1cc(/C=N/C2=C(C#N)C(c3ccco3)c3c(c4cc(C)ccc4oc3=O)O2)cc(OC)c1OC (racemic) [5d, (±)-4-(furan-2-yl)-9-methyl-5-oxo-2-((3,4,5-trimethoxybenzylidene)amino)-4H,5H-pyrano[3,2-c]chromene-3-carbonitrile]	82.92 ± 3.300 mg/L (≈ 166 µM)	18	< 15	< 15	< 15	< 15	19	19	1000 (≈ 2010 µM)	1000 (≈ 2010 µM)	43.4 ± 1.52	4.57	4.79	1.7	248 to 250	1000 (≈ 2010 µM)	–	–	–	–
Cc1ccc2oc(=O)c3c(c2c1)OC(/N=C/c1ccc(Cl)cc1Cl)=C(C#N)C3c1ccc([N+](=O)[O-])cc1 (racemic) [5e, (±)-2-((2,4-dichlorobenzylidene)amino)-9-methyl-4-(4-nitrophenyl)-5-oxo-4H,5H-pyrano[3,2-c]chromene-3-carbonitrile]	— ((—): inactive (IC50 > 200 μg/mL))	16	16	16	15	15	22	20	500 (≈ 939 µM)	500 (≈ 939 µM)	45.78 ± 1.62	4.68	5.08	2.52	236 to 238	–	–	–	–	–
O=C(/C=C/c1ccc([N+](=O)[O-])cc1)c1ccc(NS(=O)(=O)c2c(O)c3cc(Cl)ccc3oc2=O)cc1 [9a, (E)-6-Chloro-4-hydroxy-N-(4-(3-(4-nitrophenyl)acryloyl)phenyl)-2-oxo-2H-chromene-3-sulfonamide]	— ((—): inactive (IC50 > 200 μg/mL))	16	18	18	< 15	< 15	–	< 15	–	–	62.14 ± 4.87	–	–	–	205 to 207	–	< 15	1000 (≈ 1900 µM)	1000 (≈ 1900 µM)	–
O=C(O)c1cn(C2CC2)c2cc(N3CCNCC3)c(F)cc2c1=O [Ciprofloxacin, reference compound]	–	28	30	30	30	30	–	< 15	–	–	–	–	–	–	–	125 (≈ 377 µM)	< 15	125 (≈ 377 µM)	125 (≈ 377 µM)	MIC [14]: 125 mg/L (≈ 377 µM); MIC [15]: 125 mg/L (≈ 377 µM)
